{
  "source": "patent US20120004172A1",
  "about": "“SCREENING METHOD OF ANTI-LUNG OR ESOPHAGEAL CANCER COMPOUNDS” (Oncotherapy Science, Inc., priority 2008, published 2012)",
  "key": {"[1]": {"details": "cited from earlier work"}, "CDCA5": {"test_system": "CDCA5", "experimental": "(§1) [FIG. 5] […] B, Non-tagged CDCA5 expressing vector was transfected to HeLa cells. After starving the cells in FBS free for 20 hours, EGF stimulations were performed at 5, 10, 20, 30 minutes. 10 uM U0126 treatment was performed for 1 hour.\n(§2) Cultured cervical squamous cell carcinoma HeLa cells were cultured in FCS free medium for 20 hours. Then, the cells were stimulated by […] EGF for 20 min with or without 10 micro-M MEK inhibitor U0126 (Promega)."}, "ERK": {"test_system": "ERK", "details": "EGF stimulation", "experimental": "as §1\n[FIG. 6A] […] A, ERK1 or ERK2 expressing vector was co-transfected with non-tagged CDCA5 expressing vector to HeLa cells. After starvation of HeLa cells in FBS free for 20 hours, the cells were stimulated with 50 ng/ml EGF for 5, 10, 20, 30 minutes, respectively. 10 uM U0126 treatment was performed for 1 hour before EGF stimulation.\nas §2"}, "[2]": {"test_system": "LC319 lung cancer cell line", "test": "Growth assay (MTT) after transfection of CDCA5 mutant vectors, LC319", "assay_type": "cell-based, human", "details": "MTT at 6th day after transfection; compared with mock and wild type vectors", "experimental": "(§3) [FIG. 7A] The function of ERK-dependent phosphorylation sites in cancer cells. […] Growth assay was performed using A549 and LC319 lung cancer cell lines transfected with mock, wild type and CDCA5 alanine substitute vectors. MTT assay was performed at 6th day after transfection.\n(§4) [FIG. 7B] The function of ERK-dependent phosphorylation sites in cancer cells. B, Growth assay was performed using LC319 and A549 lung cancer cell line which was transfected with mock, wild type and CDCA5 phospho-mimicking mutant vectors. MTT assay was performed at 6th day after transfection.\n(§5) Cell growth may be measured by methods known in the art, e.g., using the MTT cell proliferation assay; briefly, cell-counting kit-8 solution (DOJINDO) is added to each dish at a concentration of 1/10 volume, and the plates are incubated at 37 degree Centigrade (C) for additional 2 hours. Absorbance is then measured at 450 nm as a reference, with a Microplate Reader 550 (BIO-RAD, Hercules, Calif.)."}, "[3]": {"test_system": "A549 lung cancer cell line", "test": "Growth assay (MTT) after transfection of CDCA5 mutant vectors, A549", "assay_type": "cell-based, human", "details": "MTT at 6th day after transfection; compared with mock and wild type vectors", "experimental": "as §3, §4, §5"}},
  "data": [
    {"molecule": "COc1cc2ncnc(Nc3ccc(F)c(Cl)c3)c2cc1OCCCN1CCOCC1", "note": "[gefitinib]", "values": [
      {"measurement": "response rate and symptom control", "setting": "[1]; NSCLC (NPL 11)", "result": "superior response rate and symptom control"}
    ]},
    {"molecule": "N#CC(=C(/N)Sc1ccccc1N)/C(C#N)=C(\\N)Sc1ccccc1N", "note": "[U0126]", "values": [
      {"measurement": "upper shift of endogenous CDCA5 band", "setting": "CDCA5; serum-starved HeLa cells, EGF stimulation, 10 micro-M U0126", "result": "completely inhibited the upper shift of CDCA5 band"},
      {"measurement": "signal of spot no. 2 of myc-tagged CDCA5 increased by EGF stimulation", "setting": "CDCA5; transfected HeLa cells, 2D-Western-blotting with anti-myc antibody, U0126 treatment", "result": "also reduced"},
      {"measurement": "EGF-induced shifted spots (no. 3 and 4) with more acidic pI of myc-tagged CDCA5", "setting": "CDCA5; transfected HeLa cells, 2D-Western-blotting with anti-myc antibody, pre-incubation with U0126", "result": "significantly reduced"},
      {"measurement": "activation of exogenous ERK1 or 2 as well as endogenous ERK", "setting": "ERK; HeLa cells transfected with ERK1 or ERK2 and CDCA5 vectors, 10 uM U0126 for 1 hour before EGF", "result": "but not in U0126 MEK inhibitor treatment"},
      {"measurement": "levels of ERK phosphorylation", "setting": "ERK; serum-starved HeLa cells, 10 micro-M U0126", "result": "reduced the levels of ERK phosphorylation"}
    ]},
    {"molecule": "C#Cc1cccc(Nc2ncnc3cc(OCCOC)c(OCCOC)cc23)c1", "note": "[erlotinib]", "values": [
      {"measurement": "median survival", "setting": "[1]; NSCLC, placebo 4.7 months (NPL 10)", "result": 6.7, "unit": "months"}
    ]},
    {"molecule": "Ser209 alanine substitute: CDCA5 mutant, alanine at position 209 (SEQ ID NO: 7), expressed from transfected vector; dominant negative", "values": [
      {"measurement": "growth of LC319 cells (MTT assay)", "setting": "[2]", "result": "inhibited the growth"},
      {"measurement": "growth of A549 cells (MTT assay)", "setting": "[3]", "result": "inhibited the growth"}
    ]}
  ]
}
